According to ChEMBL document CHEMBL1134299, “Conformationally constrained analogues of diacylglycerol. 18. The incorporation of a hydroxamate moiety into diacylglycerol-lactones reduces lipophilicity and helps discriminate between sn-1 and sn-2 binding modes to protein kinase C (PK-C). Implications for isozyme specificity” (J Med Chem, 2001):
Values belong to the compound of their own block, whether it stands above or below them.

Tests used:
[1] = molecular target: Protein kinase C alpha type (Homo sapiens, UniProt P17252); test: Displacement of [20-3H]-PDBU ligand from recombinant protein kinase C (baculovirus)
[2] = Partition coefficient (logP); format: physicochemical; settings: octanol/water

Structure (SMILES): CC(C)CC(C/C=C1\CC(CO)(COC(=O)C(C)(C)C)OC1=O)CC(C)C (stereo not given)
Ki [1]: 4.51 nM
logP [2]: 5.03

Structure (SMILES): CC(C)CC(C/C=C1/CC(CO)(COC(=O)C(C)(C)C)OC1=O)CC(C)C (stereo not given)
Ki [1]: 2.9 nM
logP [2]: 5.03

Structure (SMILES): CC(C)CC(C/C=C1/CC(CO)(COC(=O)C(C)(C)C)NC1=O)CC(C)C (stereo not given)
Ki [1]: 4330 nM
logP [2]: 5.01

Structure (SMILES): CC(C)CC(C/C=C1\CC(CO)(COC(=O)CC(C(C)C)C(C)C)OC1=O)CC(C)C (stereo not given)
Ki [1]: 4.46 nM
logP [2]: 6.88

Structure (SMILES): CC(C)CC(C/C=C1\CC(CO)(CN(O)C(=O)C(C)(C)C)OC1=O)CC(C)C (stereo not given)
Ki [1]: 4.81 nM
logP [2]: 3.58

Structure (SMILES): CC(C)CC(C/C=C1\CC(CO)(CNC(=O)C(C)(C)C)OC1=O)CC(C)C (stereo not given)
Ki [1]: 1260 nM
logP [2]: 3.95

Structure (SMILES): CC(C)CC(C/C=C1/CC(CO)(CNC(=O)C(C)(C)C)OC1=O)CC(C)C (stereo not given)
Ki [1]: 430 nM
logP [2]: 3.95

Next, values leading:

Ki [1]: 4840 nM
logP [2]: 5.01
Structure (SMILES): CC(C)CC(C/C=C1\CC(CO)(COC(=O)C(C)(C)C)NC1=O)CC(C)C (stereo not given)

Ki [1]: 10400 nM
Structure (SMILES): CC(C)CC(C/C=C1\CC(CO)(COC(=O)C(C)(C)C)N(O)C1=O)CC(C)C (stereo not given)

logP [2]: 5.89
Structure (SMILES): CC(C)C(C/C=C1/CC(CO)(COC(=O)CC(C(C)C)C(C)C)OC1=O)C(C)C (stereo not given)

Ki [1]: 6.87 nM
logP [2]: 6.88
Structure (SMILES): CC(C)CC(C/C=C1/CC(CO)(COC(=O)CC(C(C)C)C(C)C)OC1=O)CC(C)C (stereo not given)

Ki [1]: 8.32 nM
Structure (SMILES): CC(C)C(C/C=C1/CC(CO)(COC(=O)C(C)(C)C)OC1=O)C(C)C (stereo not given)

Ki [1]: 11.2 nM
Structure (SMILES): CC(C)C(C/C=C1\CC(CO)(COC(=O)C(C)(C)C)OC1=O)C(C)C (stereo not given)

Ki [1]: 5.42 nM
logP [2]: 3.58
Structure (SMILES): CC(C)CC(C/C=C1/CC(CO)(CN(O)C(=O)C(C)(C)C)OC1=O)CC(C)C (stereo not given)

logP [2]: 5.89
Structure (SMILES): CC(C)C(C/C=C1\CC(CO)(COC(=O)CC(C(C)C)C(C)C)OC1=O)C(C)C (stereo not given)
